Earlier results in patent US12605362B2, “Eletriptan hydrobromide for treatment of spinal cord injury and improvement of locomotor function” (TECHNOPHAGE, INVESTIGAÇÃO E DESENVOLVIMENTO EM …, priority 2020, dated 2026).

Details: in the presence of the selective 5-HT2 antagonists SB204741 and SB242084; cited from earlier work

SMILES: c1ccc2nc(N3CCNCC3)ccc2c1 [quipazine]
- locomotor-like movements: induction in locomotor-like movements
